From patent US12109207B2, “Methods of using 4(1H)-quinolone derivatives” (Academia Sinica, priority 2019, dated 2024)
Like-named read-outs stand apart in the source and are kept apart here.

Columns and labels:
SW620 = assay: Cell cytotoxicity assay (MTS), SW620; assay type: cell-based; conditions: Homo sapiens, SW-620
Description: (§1) Cells were seeded into the wells of 96-well plates (2000 cells/well). After an overnight culture, the cells were treated with different concentrations of a compound for 72 h. The CellTiter 96 AQueous one-solution cell proliferation assay (MTS) reagent was used to determine cytotoxicity. After treatment with a compound, 20 μL of the MTS reagent was added to each well and the plates were incubated at 37° C. for 1-4 h. Next, the absorbance at 490 nm of the culture medium in each well was determined using a VersaMax microplate reader (Molecular Devices).

KBvin = assay: Cell cytotoxicity assay (MTS), KBvin; assay type: cell-based, human
Description: as §1

MDA-MB-231 = assay: Cell cytotoxicity assay (MTS), MDA-MB-231; assay type: cell-based; conditions: Homo sapiens, MDA-MB-231, 72 h
Description: as §1

CCRF-CEM = assay: Cell cytotoxicity assay (MTS), CCRF-CEM; assay type: cell-based; conditions: Homo sapiens
Description: as §1

HDQP1/TAX = assay: Cell cytotoxicity assay, HDQP1/TAX; assay type: cell-based, human
Description: as §1

tubulin = tubulin (Sus scrofa, UniProt P02554); assay: Binding affinity assay (surface plasmon resonance); conditions: steady-state model, 25° C.; read-out: dissociation constant (KD) for the tubulin-AS1712 complex
Description: Surface plasmon resonance technology was used to analyze the binding affinity of AS1712 for tubulin. A Series S Sensor Chip SA was conditioned with three consecutive 1-min injections of 1 M NaCl in 50 mM NaOH, and then 50 μg/mL biotin-tubulin (Cytoskeleton) was immobilized onto the sensor chip surface in a Biacore T200 system (GE Healthcare) to attain 3,000 resonance units. One flow cell on the chip was left free to serve as the negative control. Biocytin (Sigma Aldrich) was used to block any remaining unmodified streptavidin sites. Different concentrations of AS1712 in 10 mM HEPES, 150 mM NaCl, 3 mMEDTA, and 0.05% surfactant P20, pH 7.4 were separately injected over the sensor chip surface to measure the association and dissociation of AS1712 and tubulin at 25° C. The value of KD was calculated using the steady-state fitting mode in Biacore T200 Evaluation Software.

82T = assay: Cell cytotoxicity assay (MTS), 82T; assay type: cell-based; conditions: Homo sapiens, 72 h
Description: as §1

37T = assay: Cell cytotoxicity assay (MTS), 37T; assay type: cell-based; conditions: Homo sapiens, 72 h
Description: as §1

CL1-0 and H1975 cells [1] = assay: Cell cycle analysis (flow cytometry); assay type: cell-based, human; conditions: 24 h, propidium iodide
Description: After treatment, cells were trypsinized and fixed in ice-cold 70% ethanol overnight. Fixed cells were washed with PBS and stained with 0.5 mL of a propidium iodide (10 μg/mL)/RNase (20 μg/mL) solution for 30 minutes. The cellular DNA content was analyzed with a FACSCanto flow cytometer (Becton Dickinson).

H1975 cells = assay: Cell cytotoxicity assay (MTS), H1975; assay type: cell-based, human; conditions: H1975 cells, 72 h, MTS, read-out: IC50
Description: as §1

KBtax = assay: Cell cytotoxicity assay (MTS), KBtax; assay type: cell-based, human
Description: as §1

SAS = assay: Cell cytotoxicity assay (MTS), SAS; assay type: cell-based; conditions: Homo sapiens
Description: as §1

IGR-OV1 = assay: Cell cytotoxicity assay (MTS), IGR-OV1; assay type: cell-based; conditions: Homo sapiens, IGROV-1
Description: as §1

Du-145 = assay: Cell cytotoxicity assay (MTS), Du-145; assay type: cell-based; conditions: Homo sapiens
Description: as §1

[2] = Body mass and serum biochemical markers, H1975 xenograft mice; assay type: in vivo, BALB/c nude mice; conditions: for ALT (IU/L) / AST(IU/L) / BUN / Cre: day 25, mean ± SEM
Description: Using the H1975, MDA-MB-231, and KBtax xenograft models, tumors were established after inoculation into the right flanks of 6-week-old BALB/c nude mice (NARLabs, Taipei, Taiwan). After establishment of the tumors, vehicle and test compounds, which had been dissolved in DMSO, were each injected intraperitoneally into a separate group of animals three times per week. The body mass of each animal and tumor volumes were measured before each drug delivery. Tumor volume was calculated as 0.5W^2L (with W being the width of the smaller diameter and L being the length of the larger diameter). The animal experiment was carried out in accordance with the procedures and guidelines of the Institutional Animal Care and Use Committee, Institute of Biomedical Sciences, Academia Sinica.

CL1-0 and H1975 cells [3] = assay: Colony formation assay; assay type: cell-based, human; conditions: 12.5-200 nM, 14 days
Description: Cells were seeded into the wells of six-well plates (1000 cells/well). After overnight culture, the cells were treated with various concentrations of AS1712 for 2 weeks. Then, the colonies in each well were fixed with 3.7% paraformaldehyde, stained with 0.04% crystal violet, and dissolved in 1 ml DMSO. The absorbance at 590 nm of each DMSO solution was read using the VersaMax microplate reader.

PC-3 = assay: Cell cytotoxicity assay (MTS), PC-3; assay type: cell-based; conditions: Homo sapiens
Description: as §1

HDQP1 = assay: Cell cytotoxicity assay, HDQP1; assay type: cell-based; conditions: Homo sapiens, HDQ-P1; TNBC cell line HDQP1
Description: as §1

PC9 = assay: Cell cytotoxicity assay (MTS), PC9; assay type: cell-based; conditions: Homo sapiens, PC-9, PC9, 72 h
Description: as §1

[4] = system: human fibroblast (HFB) cells; assay: Cell cytotoxicity assay (MTS), human fibroblast; assay type: cell-based; conditions: normal cell line HFB
Description: as §1

Sequence of tubulin (P02554 whole entry): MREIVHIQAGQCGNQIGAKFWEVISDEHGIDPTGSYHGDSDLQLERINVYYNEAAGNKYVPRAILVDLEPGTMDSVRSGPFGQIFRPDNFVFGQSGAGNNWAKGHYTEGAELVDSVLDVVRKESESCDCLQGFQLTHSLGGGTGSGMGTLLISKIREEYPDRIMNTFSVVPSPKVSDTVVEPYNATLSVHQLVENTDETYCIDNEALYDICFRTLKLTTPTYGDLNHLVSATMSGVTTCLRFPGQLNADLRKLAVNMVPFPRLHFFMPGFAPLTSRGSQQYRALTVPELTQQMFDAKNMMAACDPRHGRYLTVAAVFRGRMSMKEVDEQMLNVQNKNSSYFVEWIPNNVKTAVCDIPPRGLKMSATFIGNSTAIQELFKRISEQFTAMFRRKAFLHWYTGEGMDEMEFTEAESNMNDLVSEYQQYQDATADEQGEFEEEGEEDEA
Sequence of tubulin (P02550 whole entry partner): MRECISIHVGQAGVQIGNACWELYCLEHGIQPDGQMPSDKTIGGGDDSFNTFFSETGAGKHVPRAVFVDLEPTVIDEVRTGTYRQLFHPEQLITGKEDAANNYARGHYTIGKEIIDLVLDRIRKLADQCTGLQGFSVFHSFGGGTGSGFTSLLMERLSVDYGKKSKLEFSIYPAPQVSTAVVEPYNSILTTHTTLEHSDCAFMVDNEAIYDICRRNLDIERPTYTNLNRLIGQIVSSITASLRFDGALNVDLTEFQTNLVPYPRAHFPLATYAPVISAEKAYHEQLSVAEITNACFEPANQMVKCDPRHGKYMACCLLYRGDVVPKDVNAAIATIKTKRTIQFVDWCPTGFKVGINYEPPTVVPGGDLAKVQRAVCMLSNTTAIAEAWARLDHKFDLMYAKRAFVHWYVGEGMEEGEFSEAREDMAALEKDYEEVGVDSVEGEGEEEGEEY

CCOC(=O)c1ccc2[nH]c(-c3ccccc3)cc(=O)c2c1 [AS1712, Ethyl 4-oxo-2-phenyl-1,4-dihydroquinoline-6-carboxylate]
IC50 (SW620): 35 ± 1.18 nM
IC50 (KBvin; Homo sapiens, KBvin, P-gp overexpressing, vincristine-selected KB subline): 37 ± 0.77 nM
RF, resistance factor (IC50 in resistant cell line/IC50 in parent cell line) (KBvin; KBvin vs KB): 1
IC50 (MDA-MB-231): 55 ± 6.83 nM
IC50 (CCRF-CEM): 45 ± 0.45 nM
RF, resistance factor (IC50 in resistant cell line/IC50 in parent cell line) (HDQP1/TAX; HDQP1/TAX vs HDQP1): 0.92
IC50 (HDQP1/TAX; Homo sapiens, HDQ-P1, Paclitaxel-resistant subline): 63 ± 16.3 nM
Kd (tubulin): 13800 nM
IC50 (82T): 35 ± 0.67 nM
IC50 (37T): 34 ± 2.99 nM
sub-G1 and G2/M-phase population (CL1-0 and H1975 cells [1]): increased
IC50 (H1975 cells): 35 nM
IC50 (H1975 cells; Homo sapiens, NCI-H1975, 72 h): 33 ± 4.86 nM
IC50 (KBtax; Homo sapiens, KBtax, P-gp overexpressing, paclitaxel-selected KB subline): 30 ± 0.65 nM
RF, resistance factor (IC50 in resistant cell line/IC50 in parent cell line) (KBtax; KBtax vs KB): 0.81
IC50 (SAS): 78 ± 10.4 nM
IC50 (IGR-OV1): 84 ± 2.07 nM
IC50 (Du-145): 47 ± 1.28 nM
ALT (IU/L) ([2]; 4 mg/kg): 40.8 ± 11 IU/L
AST(IU/L) ([2]; 4 mg/kg): 138.7 ± 58.6 IU/L
BUN ([2]; 4 mg/kg): 23.2 ± 2.5 mg/dL
Cre ([2]; 4 mg/kg): 0.26 ± 0.05 mg/dL
ALT (IU/L) ([2]; 8 mg/kg): 54.2 ± 16 IU/L
AST(IU/L) ([2]; 8 mg/kg): 170.8 ± 44.5 IU/L
BUN ([2]; 8 mg/kg): 20.9 ± 1.5 mg/dL
Cre ([2]; 8 mg/kg): 0.17 ± 0.02 mg/dL
body mass ([2]; 4 or 8 mg/kg i.p. three times a week, end of experiment): non-toxic affected
colony-forming abilities (CL1-0 and H1975 cells [3]): suppressed in a dose-dependent manner
IC50 (PC-3): 45 ± 1.77 nM
IC50 (HDQP1): 68 ± 5.38 nM
IC50 (PC9): 17 ± 2.09 nM
IC50 [4]: > 10000 nM
